Assay results from patent publication US7872043B2, “Use of furan alkyls for a cellulite cosmetic treatment” (Laboratories Expanscience, priority 2004, dated 2011).

What was measured:
[1] = test system: CYP7A1; assay: Liver mRNA expression, real-time Q-RT-PCR: CYP7A1; format: in vivo, mice; details: TZD; AV102 (0.25%)
Description: (§1) In the liver, the mRNA expressions of 8 genes were determined in 5 mice of each group using real-time Q-RT-PCR analysis.

[2] = test system: ME, FAS, ACC (fatty acid synthesis); assay: Liver mRNA expression, real-time Q-RT-PCR: ME, FAS, ACC; format: in vivo, mice; details: TZD; AV102 (0.25%)
Description: as §1

[3] = test system: PEPCK (target PPARγ); assay: Liver mRNA expression, real-time Q-RT-PCR: PEPCK; format: in vivo, mice; details: TZD; AV102 (0.25%)
Description: as §1

[4] = test system: mice fattened on a high fat/high sucrose diet (HF/HS); assay: Blood glucose and insulin analysis; format: in vivo; details: TZD 10 mg/kg/day
Description: (§2) We used adult mice (aged 6 weeks) of masculine gender fattened on a high fat/high sucrose diet (HF/HS). Feeding with the HF/HS diet began on mice aged 6 weeks and continued throughout the period of the study. The study was conducted along 2 axes: • prevention: the product was administered as soon as feeding began with the HF/HS diet; • management (curative): the product was administered 12 weeks after the start of the HF/HS diet. Total treatment time (preventive and curative): 23 weeks.
(§3) Each experimental group comprised 10 mice.
(§4) Subsequently the following were analysed: lipoprotein profile (by size exclusion chromatography); apolipoportein A1; lipid composition of the liver (liver triglycerides, cholesterol and free fatty acids); histological analysis of the liver and adipose tissue; staining of accumulated lipids in the liver.

[5] = test system: ACO (target PPARα); assay: Liver mRNA expression, real-time Q-RT-PCR: ACO; format: in vivo; details: TZD; AV102 (0.25%); 5 mice per group
Description: as §1

[6] = test system: mice fattened on a high fat/high sucrose diet (HF/HS); assay: Intra Peritoneal Insulin Sensitive Test (IPIST); format: in vivo; details: preventive; TZD 10 mg/kg/day; (3 W***)
Excerpt: Diabetics suffer from an increase in insulin resistance which leads to hyperglycaemia.

[7] = test system: mice fattened on a high fat/high sucrose diet (HF/HS); assay: Food intake and weight gain of mice on HF/HS diet; format: in vivo; details: curative; TZD 10 mg/kg/dy
Description: as §2, §3

[8] = test system: mice fattened on a high fat/high sucrose diet (HF/HS); assay: Plasma lipoprotein profile (size exclusion chromatography); format: in vivo; details: TZD
Description: as §2, §3, §4
(§5) The different cholesterol blood levels and different fractions were analysed using a HPLC method.

[9] = test system: mice fattened on a high fat/high sucrose diet (HF/HS); assay: Hepatic metabolism: transaminases and alkaline phosphatase (liver toxicity); format: in vivo; details: TZD and AV102 groups; considered very moderate, does not appear to reflect liver toxicity
[10] = test system: PGC-1 (mitochondria biogenesis); assay: Muscle/BAT mRNA expression: PGC-1; format: in vivo, mice; details: TZD, AV102 (0.25%)
Description: In the brown adipose tissue (BAT) and in the muscles, the mRNA expression of 3 genes was determined in 5 mice of each group by real-time Q-RTR-PCR analysis.

[11] = test system: mice fattened on a high fat/high sucrose diet (HF/HS); assay: Blood parameters: plasma lipids (total cholesterol, LDL, HDL, TG, FFA); format: in vivo; details: TZD 10 mg/kg/day; for HDL / Total cholesterol: (3 W***)
Description: as §2, §3, §4, §5

For `CN(CCOc1ccc(CC2SC(=O)NC2=O)cc1)c1ccccn1` (stereo not drawn) [TZD, Rosiglitazone], the “CYP7A1 (conversion oxysterol into biliary acids) mRNA in the liver” value [1] was “↑↑”, the “ME, FAS, ACC (fatty acid synthesis) mRNA in the liver” value [2] was “↑↑” and the “PEPCK (target PPARγ) mRNA in the liver” value [3] was “↑”. For the same compound, the “GLUCOSE (blood)” value ([4]; curative, (3 W**)) was “dropped considerably and ↓↓”, the “GLUCOSE (blood)” value ([4]; preventive) was “↓” and the “INSULIN (blood)” value ([4]; preventive) was “↓”. For the same compound, the “ACO (target PPARα) mRNA in the liver” value [5] was “↑”, the “IPIST (insulin sensitivity test)” value [6] was “↓↓” and the Mouse wt. [7] was “did not cause the overweight mice to lose weight”. For the same compound, the “Fractions of HDL and VLDL cholesterol (lipoprotein profiles)” value ([8]; curative, after 3 weeks' treatment) was “reduction”, the “HDL, LDL and VLDL cholesterol fractions (plasma lipoprotein profiles)” value ([8]; preventive, weeks 8 and 15) was “reduction” and the “Plasma ALP” value [9] was “increase”. The “PGC-1 (mitochondria biogenesis) mRNA in muscle/BAT” value [10] was “↑ (muscle)”, the LDL ([11]; curative) was “reduction” and the “TG (Triglycerides)” value ([11]; curative) was “No change”. For the same compound, the HDL ([11]; curative) was “reduction”, the Total cholesterol ([11]; curative) was “reduction” and the LDL ([11]; preventive) was “downward trend”. The “TG (Triglycerides)” value ([11]; preventive) was “significantly reduced”, the HDL ([11]; preventive) was “significant reduction” and the Total cholesterol ([11]; preventive) was “significant reduction”.
